Laboratory results published in US20260265262A1, “CDK2 INHIBITORS AND METHODS OF USING THE SAME” (Cedilla Therapeutics, Inc., priority 2022, published 2026).
pIC50: −log10 of the molar value.

Key:
[1] = molecular target: T1, CDK2/Cyclin E1 (Homo sapiens, UniProt P24941); test: CDK2/Cyclin E1 Caliper LabChip EZ Reader mobility shift assay; assay type: biochemical; conditions: 2.5 nM CDK2/Cyclin E1, 100 μM ATP, 1.5 μM fluorescent peptide, 30 min pre-incubation; read-out: Caliper Assay (CDK2/CCNE1): IC50
Description: Inhibition of CDK2/Cyclin E1 activity in the presence of compounds of the present disclosure was evaluated using a CaliperLabChip® EZ Reader mobility shift assay. In the assay, CDK2/Cyclin E1 (Eurofins, 14-475) catalyzed the phosphorylation of a fluorescently tagged peptide 5-FAM-QSPKKG-CONH2 (PerkinEliner, FL Peptide 18) which induced a difference in capillary electrophoresis mobility. The peptide substrate and product were measured, and the conversion ratio was used to determine the inhibition (as % activity and IC50 values) of CDK2/Cyclin E1. Reactions contained 50 mM HEPES pH 7.5, 10 mM MgCl2, 1 mM EDTA, 2 mM DTT, 0.01% Brij35, 0.5 mg/mL BSA, 0.1% DMSO, 2.5 nM CDK2/Cyclin E1, 100 μM ATP, and 1.5 μM fluorescent peptide substrate.
Dose titrations of inhibitors in 100% DMSO were combined with 3.25 nM CDK2/Cyclin E1 and 130 μM of ATP in reaction buffer. The mixtures were incubated for 30 minutes before the addition of fluorescent peptide substrate to initiate the kinase reaction. The final conditions were 2.5 nM CDK2/Cyclin E1, 100 μM ATP, and 1.5 μM fluorescent peptide. The reactions were stopped after 100 minutes with the addition of EDTA (400 mM final EDTA concentration). The stopped reactions were analyzed on a Caliper LabChip® EZ Reader II. The conversion ratios were normalized to yield % activity, plotted against compound concentration, and fit to a four-parameter equation to determine the IC50 for each compound.

[2] = system: Kuramochi cells; test: IncuCyte cell proliferation assay; assay type: cell-based; conditions: Kuramochi cells labeled with mApple-H2B, cell count 0 to 72 hours, 20 μM top concentration; read-out: IncuCyte Kuramochi RB-WT: IC50
Method in brief: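 Kuramochi cells expressing mApple-H2B were treated with a 10-point, ½-log dilution series (top 20 μM). Fluorescent nuclei were counted by IncuCyte imaging at 0 and 72 h. The fold change in cell count was normalized to DMSO wells and fitted to dose-response curves to give […].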

[3] = molecular target: T1, CDK2/Cyclin E1; test: ADP-Glo Luminescent Kinase Assay (CDK2/E1-37C); assay type: biochemical; conditions: 0.18 nM CDK2/Cyclin E1, 100 μM ATP, 1.5 μM Histone H1, 37° C., 60 min pre-incubation; read-out: ADPGLO (CDK2/E1-37C): IC50
Method in brief: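 Human CDK2/Cyclin E1 preincubated with inhibitor 60 min at 37 °C, then reacted 90 min at 37 °C with final 0.18 nM enzyme, 100 μM ATP, 1.5 μM Histone H1 in HEPES pH 7.5 buffer. ADP formed read by ADP-Glo luminescence; IC50 from four-parameter fit.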

SMILES | pIC50 [1] | pIC50 [2] | pIC50 [3]
C[C@@H](OCC1CCC2(CCC2)CC1)[C@H](NC(=O)[C@@H]1CN(C(=O)c2cnn(Cc3ccccc3)c2)CC12CN(C(=O)[C@H]1CC1(C)C)C2)C(=O)O [Example I-40, N—((S)-6-(1-benzyl-1H-pyrazole-4-carbonyl)-2-((S)-2,2-dimethylcyclopropane-1-carbonyl)-2,6-diazaspiro[3.4]octane-8-carbonyl)-O-(spiro[3.5]nonan-7-ylmethyl)-L-threonine] | > 8.00 | < 4.70 | > 6.30
C[C@@H](OCC1CCCCC1)[C@H](NC(=O)[C@@H]1CN(C(=O)c2cnn(Cc3ccccc3)c2)CC12CN(C(=O)[C@H]1CC1(C)C)C2)C(=O)N1CCC(c2ccc(C(=O)O)cc2)CC1 [Example I-45] | > 8.00 | 5.30 to 6.30 | > 6.30
CCOC(=O)C(F)(F)CNC(=O)[C@@H](NC(=O)[C@@H]1CN(C(=O)c2cnn(Cc3ccccc3)c2)CC12CN(C(=O)[C@H]1CC1(C)C)C2)[C@@H](C)OCC1CCCCC1 [Example I-47, ethyl 3-((2S,3R)-2-((S)-6-(1-benzyl-1H-pyrazole-4-carbonyl)-2-((S)-2,2-dimethylcyclopropane-1-carbonyl)-2,6-diazaspiro[3.4]octane-8-carboxamido)-3-(cyclohexylmethoxy)butanamido)-2,2-difluoropropanoate] | > 8.00 | 4.70 to 5.30 | > 6.30
COC(=O)C1(CNC(=O)[C@@H](NC(=O)[C@@H]2CN(C(=O)c3cnn(Cc4ccccc4)c3)CC23CN(C(=O)[C@H]2CC2(C)C)C3)[C@@H](C)OCC2CCCCC2)CC1 [Example I-39] | > 8.00 | > 6.30 | > 6.30
C[C@@H](OCC1CCCCC1)[C@H](NC(=O)[C@@H]1CN(C(=O)c2cnn(Cc3ccccc3)c2)CC12CN(C(=O)[C@H]1CC1(C)C)C2)C(=O)NCCC(=O)O [Example I-41, 3-((2S,3R)-2-((S)-6-(1-benzyl-1H-pyrazole-4-carbonyl)-2-((S)-2,2-dimethylcyclopropane-1-carbonyl)-2,6-diazaspiro[3.4]octane-8-carboxamido)-3-(cyclohexylmethoxy)butanamido)propanoic acid] | > 8.00 | < 4.70 | > 6.30
COC(=O)[C@@H](NC(=O)[C@@H]1CN(C(=O)c2cnn(Cc3ccccc3)c2)CC12CN(C(=O)[C@H]1CC1(C)C)C2)[C@@H](C)OCC1CCC2(CCC2)CC1 [Example I-43] | > 8.00 | 5.30 to 6.30 | > 6.30
CNC(=O)[C@@H](NC(=O)[C@@H]1CN(C(=O)c2cncs2)CC12CN(CC1CCCO1)C2)[C@@H](C)OCC1(CO)CC=CCC1 (stereo partly drawn) [Example I-49] | 6.00 to 7.00 | < 4.70 | < 5.00
COC(=O)[C@@H]1CCCCN1C(=O)[C@@H](NC(=O)[C@@H]1CN(C(=O)c2cnn(Cc3ccccc3)c2)CC12CN(C(=O)[C@H]1CC1(C)C)C2)[C@@H](C)OCC1CCCCC1 [Example I-38] | > 8.00 | > 6.30 | > 6.30
